Test results reported in patent US12533315B2, “Compositions comprising at least one ionic liquid, a polypeptide, and at least one non-ionic surfactant for protein delivery” (PRESIDENT AND FELLOWS OF HARVARD COLLEGE, priority 2019, dated 2026).
“Also recorded” adds a separate entry of the source.

Experiments:
[1] = tested on: Fab (antihistone H1 antibody fragment; antigen KLH-SSV peptide); details: Fab 10 μg/mL in 10 mM phosphate buffer
Procedure: The Fab solution (10 mM phosphate buffer, pH 7.4) was mixed with CAGE (1:2) at the volume ratios of 50%/50% (v/v %), 40%/60% (v/v %), and 30%/70% (v/v %), and the mixed solutions were allowed to stand at room temperature for 1 hour. The Fab solution was prepared to obtain the final concentration of 10 μg/mL.
The solution was dialyzed with 10 mM phosphate buffer (pH 7.4) used as the dialysate at room temperature for 48 hours. The dialysate was replaced appropriately during the dialysis. At 48 hours later, the solution thus obtained was stored in a refrigerator at 4° C.
ELISA was conducted according to the method of Chiang et al. [51]. Briefly, 2 μg of KLH-SSV peptide (0.1 M sodium bicarbonate-sodium carbonate buffer, pH 9.6±0.2) were instilled into each well, and the solution was allowed to stand overnight at room temperature. After the removal of the KLH-SSV solution and the washing of each well with PBS (0.05% Tween 20®), 300 μL of SuperBlock Blocking Buffer™ in PBS were added into each well, and the solution was allowed to stand for 1 hour at room temperature. […] At 20 minutes later, SpectraMax i3™ (Molecular Devices) was used to measure absorbance at 405 nm. […]

porcine skin [2] = tested on: porcine skin
Procedure: (§1) Preparation of FITC-labeled Fab. The Pierce™ FITC Antibody-Labeling Kit (ThermoFisher Scientific) was used to label Fab purchased from Chemical & Scientific Corporation with FITC. Briefly, 925 μL of sterilized water were added into 75 μL of 0.67 M borate buffer that had been attached to the kit, and the labeling buffer (50 mM sodium borate, pH 8.5) was prepared. Lyophilized Fab, 1 mg, was added into 0.5 mL of the labeling buffer and was then melted. The Fab solution, 0.5 mL, was added into the FITC reagent vial that had been attached to the kit and was then pipetted 10 times for the complete melting of the pigment. After the collection of the slightly centrifuged sample solution in the vial's bottom, the reaction was incubated at room temperature for 60 minutes and under light blocking. At 60 minutes later, the column containing the reaction solution was set to the recovery column that had been attached to the kit. Subsequently, 400 μL of the homogeneously suspended purification column suspension solution were added. After centrifugation (about 1,000 μg, 30 to 45 seconds), FITC-labeled Fab was recovered. The amount of antibody labeling was calculated by measuring absorbance at 280 nm and 495 nm according to the following formulae:
(§2) Preparation of the FITC-labeled Fab-CAGE sample solution. The FITC-Fab solution (50 mM sodium borate, pH 8.5) was mixed with 6 CAGE variants at a volume ratio of 50%/50% (v/v %). Regarding CAGE (1:2), the FITC-Fab solution was mixed at volume ratios of 50%/50% (v/v %), 40%/60% (v/v %), and 30%/70% (v/v %). The mixed solutions were allowed to stand at room temperature for 1 hour. Subsequently, 300 μL of the mixed solutions obtained were used for the porcine skin penetrability test.
(§3) Preparation of the FITC-labeled Fab-CAGE-polysorbate sample solutions. Polysorbates 40 and 60 were mixed with the FITC-labeled Fab solution (50 mM sodium borate, pH 8.5) to obtain the final concentration of 3%. Subsequently, the resulting solutions were mixed with CAGE (1:2) at the volume ratios of 30%/70% (v/v %) [=30% CAGE (1:2)] or 40%/60% (v/v %) [=40% CAGE (1:2)]. Because of its nature of being solid at room temperature, polysorbate 60 was dissolved by 30-minute warming at 37° C. prior to the addition. Furthermore, the solution was warmed for 10 minutes at 37° C. to completely dissolve polysorbate 60 and was then mixed with CAGE (1:2). The resulting mixed solutions were allowed to stand at room temperature for 1 hour. The final concentration of antibodies was adjusted to 10 μg/mL.
(§4) Preparation of the porcine skin. In the porcine skin penetrability test, the cryopreserved skin of a WSP was unfrozen at room temperature. A pair of scissors were used to remove hair on the skin surface, followed by washing of the skin surface with PBS. The WSP skin, with the epidermis side upward, was set to the receiver chamber of a longitudinal diffusion cell (diffusion area: 1.77 cm2). The upper portion of the skin was filled with PBS (0.01% sodium azide). A contact gauge of conductivity was used to confirm skin conductivity at 100 Hz. The WSP skin with a resistivity of ≥5.65 kΩ/cm2 only was used in the porcine skin penetrability test based on previous studies [53,54].
(§5) Skin penetrability test using the porcine skin. The porcine skin was punched in a circle with a 36-mm diameter puncher. Subsequently, the porcine skin, with the epidermis side upward, was set on the receiver chamber of a longitudinal diffusion cell (diffusion area: 1.77 cm2). PBS (0.01% sodium azide, pH 7.4) was added into the interior of the receiver chamber and to the upper portion of the skin via a donor chamber, and the skin was allowed to stand in the incubator at 37° C. for 30 minutes. Meanwhile, the solution of the receiver chamber was stirred gently.

[3] = tested on: Fab (antihistone H1 antibody fragment; antigen KLH-SSV peptide); assay: Deactivation-preventing effect of polysorbates on Fab in CAGE (1:2) (ELISA); assay type: biochemical; details: for Fab deactivation-preventing effect, qualitative comparison of polysorbates: 30% and 40% CAGE (1:2), 3% to 10% polysorbate (FIGS. 7A, 7B)
Procedure: Preparation of the Fab-CAGE (1:2)-polysorbate mixed solutions. […] Unlike other polysorbates, polysorbate 60 only is solid at room temperature.
The dialysate was replaced appropriately during the dialysis.
Each experiment was conducted in triplicate.

porcine skin [4] = assay: Porcine skin penetrability test of FITC-labeled Fab, confocal fluorescence microscopy; details: for impact on skin penetration of Fab: 3% polysorbate added to CAGE (1:2); for skin penetration of Fab: 3% polysorbate alone, without CAGE
Procedure: as §1, §2, §3, §4, §5

Substance: Choline And GEranate [CAGE (1:2)]
- Fab deactivation, dependence on CAGE (1:2) concentration [1]: deactivated in a concentration dependent manner
- ELISA signal (absorbance of undialyzed aqueous Fab solution = 100%) ([1]; ≥5% CAGE (1:2), 1 hour room temperature, CAGE removed by dialysis): about 5%
- penetration of Fab into skin in vitro (porcine skin [2]): deep penetration into skin
- skin penetration-enhancing effect of Fab (porcine skin [2]): most potent

Substance: polyoxyethylene (20) sorbitan monolaurate [polysorbate 20]
- Fab deactivation-prevention effect (preventive effect) ([3]; 3% polysorbate, 40% CAGE (1:2), Fab 10 μg/mL): about 50%
- Fab deactivation-prevention effect (preventive effect) ([3]; 5% polysorbate, 30% CAGE (1:2), Fab 10 μg/mL): ~100%
- Fab deactivation-prevention effect (preventive effect) ([3]; 8% polysorbate, 30% CAGE (1:2), Fab 10 μg/mL): ~100%
- Fab deactivation-prevention effect (preventive effect) ([3]; 10% polysorbate, 30% CAGE (1:2), compared with 5% and 8%): decreased slightly
- Fab deactivation-prevention effect (preventive effect) ([3]; 10% polysorbate, 40% CAGE (1:2), compared to 3% polysorbate 20): comparable
- Fab deactivation-prevention effect, dependence on polysorbate concentration ([3]; 40% CAGE (1:2), polysorbate above 3%): decreased with increasing polysorbate 20 concentrations
- Fab deactivation ([3]; 50% CAGE (1:2), polysorbate concentrations other than 8%): mostly deactivated
- Fab deactivation-prevention effect (preventive effect) ([3]; ≥3% (v/v) polysorbate, 30% CAGE (1:2), Fab 10 μg/mL): prevented

Substance: polyoxyethylene (20) sorbitan monooleate [polysorbate 80]
- Fab deactivation-preventing effect, qualitative comparison of polysorbates [3]: needs to be at a higher concentration compared to polysorbate 40 and polysorbate 60

Substance: polyoxyethylene (20) sorbitan monopalmitate [polysorbate 40]
- impact on skin penetration of Fab (porcine skin [4]): do not adversely impact skin penetration of Fab
- skin penetration of Fab (porcine skin [4]): did not impact skin penetration of the Fab
- Fab deactivation-preventing effect, qualitative comparison of polysorbates [3]: prevented Fab deactivation at a lower concentration than did polysorbate 20; also recorded: equivalent; also recorded: more effective; also recorded: most potent

Substance: polyoxyethylene (20) sorbitan monostearate [polysorbate 60]
- impact on skin penetration of Fab (porcine skin [4]): do not adversely impact skin penetration of Fab
- skin penetration of Fab (porcine skin [4]): did not induce skin penetration of Fab
- skin penetration of FITC-labeled Fab (porcine skin [4]; 30% CAGE + 3% polysorbate 60 versus 30% CAGE alone): Comparable skin penetration
- Fab deactivation-prevention effect (preventive effect) ([3]; 3% polysorbate, 30% CAGE (1:2), Fab 10 μg/mL): > 80%
- Fab deactivation-preventing effect, qualitative comparison of polysorbates [3]: equivalent; also recorded: more effective; also recorded: most potent
